Results: a melting point compilation (Tetko et al.; mined from patent text by program, amines drawn as free bases though some values may be those of a salt)

| Structure (SMILES) | melting point [°C] |
| --- | --- |
| CCCCc1nc2c(N)nc3ccccc3c2n1CCCCN1CCCS1(=O)=O | 173 to 176 |
| O=C1CC(=O)[C@H](CC2CCCCC2)N1 | 165 to 167 |
| CCCCc1nc2c(N)nc3ccc(OCc4ccccc4)cc3c2n1CCCCNS(C)(=O)=O | 178 to 182 |
| COC(=O)/C=C/n1cnc2ccc(C(C)C)cc2c1=O | 145 |
| CC(CO)C1CCC2=C3C=CC4C(C)(C)C(OC(=O)c5ccccc5)CCC4(C)C3CCC21C (stereo unspecified) | 218 to 220 |
| CSc1nc(C)c(CCN2CC=C(c3c[nH]c4ccccc34)CC2)c(=O)n1C | 245 to 246 |
| S=C1Nc2ccccc2N2CCN(c3ccccc3)CCN12 | 202 to 206 |
| c1c(C(CN2CCNCC2)N2CCNCC2)nc(N2CCCC2)nc1N1CCCC1 (stereo unspecified) | 148 to 149 |
| NCC1Cc2cc(F)cc(-c3cccnc3)c2O1 (stereo unspecified) | 88 to 90 |
| CN(C(=O)OCc1ccccc1)c1ccc(OCC(=O)N[C@@H](CC(N)=O)C(=O)N[C@@H](Cc2ccccc2)[C@H](O)C(=O)N2CCC[C@H]2C(=O)NC(C)(C)C)cc1 | 98 to 100 |
| CC(=O)OC1CSC(Oc2cccnc2-c2ccncc2)C(OC(C)=O)C1OC(C)=O (stereo unspecified) | 161 |
| COc1cc2c(Nc3cccc(C)c3)ncnc2cc1OC(C)C | 218 to 221 |
| CCCC(=O)c1cnc2c(OC)cccc2c1Nc1ccc(O)cc1 | 270 to 272 |
| CC(=O)NN1CCN(CCc2c[nH]c3ccccc23)CC1 | 183 to 186 |
| O=c1c2c(Cc3ccsc3)n[nH]c2c2cccnc2n1-c1cccc(OC(F)(F)F)c1 | 247 to 251 |
| CCC(Oc1cnc(Cl)c(Cl)c1)C(=O)NC(C)(C)C#CCO (stereo unspecified) | 129 to 131 |
| COc1cc2c(cc1O)CC1c3c(cc(OC)c(O)c3-2)CCN1CC1CC1 (single isomer, unassigned; (+)) | 80 to 84 |
| Cc1cc(S(=O)(=O)F)ccc1Br | 47 to 48 |
| CC(C)NCC(O)COc1ccc(-c2nc(C(F)(F)F)c[nH]2)cc1 (stereo unspecified) | 173 to 174 |
| CN(C)CCCn1nc2c(c1-c1ccccc1)CCc1ccccc1-2 | 60 to 62 |
| CC1(c2ccccc2)OC(=S)N(Nc2ccccc2)C1=O (stereo unspecified) | 81 to 85 |
| Cc1noc(CCCCCCCOc2ccc(C3=NCCO3)cc2)c1CN1CCCC1 | 98 to 99 |
| CC(CCl)OC(=O)Nc1ccc([N+](=O)[O-])cc1Cl (stereo unspecified) | 101 to 103 |

| Structure (SMILES) | melting point [°C] |
| --- | --- |
| O=c1oc2cc(O)c(O)c([N+](=O)[O-])c2cc1-c1nnn[nH]1 | > 315 |
| COc1ccc(C(=O)C=C2c3ccccc3C(=O)c3ccccc32)cc1OC | 160 |
| Cc1cc(I)cc(C=CC#N)c1 | 98 |
| CC1(C)CCC(C)(C)C2=C1CC(C(=O)Oc1ccc(C(=O)O)cc1)C2 | 194 to 195 |
| O=c1[nH]c(=O)n(Cc2ccc(Cl)cc2)c2nc[nH]c12 | 304 to 310 |
| CCCOCCN(CC)c1ccc(-c2ccc3c(c2)C=C(C(=O)O)CCN3C=O)cc1 | 169 to 171 |
| COc1ccnc(CS(=O)c2nc3cc4c(cc3[nH]2)OC(F)(F)C(F)(Cl)O4)c1 (stereo unspecified) | 179 to 181 |
| COc1ncnc(OC)c1NC(=O)c1cccs1 | 198 to 200 |
| CC1C(O)C(C(C)(C)O)C(=O)N1c1ccc(C#N)c(Cl)c1 (stereo unspecified) | 131 to 132 |
| CCCn1nc(C)c(C(=O)O)c1Cc1ccc(-c2ccccc2-c2nnn[nH]2)cc1 | 240 to 242 |
| CC(=O)OCC1OC(n2cc(F)c(=O)[nH]c2=O)CC1OCc1ccccc1 (stereo unspecified) | 87 to 88 |
| COc1cc(C(C)C)c2c(c1)S(=O)(=O)N(COc1cc(C(F)(F)F)nn1-c1ccc3ccccc3n1)C2=O | 124 to 125 |
| C[C@@H](Nc1ncnc2[nH]c(-c3ccc(CO)cc3)cc12)c1ccccc1 | > 300 |
| CC(c1ccccc1N1CCCCC1)C(C(N)=O)c1ccc(C(=O)N(C)C)cc1 (stereo unspecified) | 148 to 150 |
| CNc1ccc2[nH]ncc2c1 | 144 to 146 |
| Clc1cc2c(-c3ccccc3)coc2c2ccccc12 | 66 to 69 |
| CC(C)(Oc1ccc(C(=O)c2ccccc2)cc1)C(=O)O | 130 |
| O=C(O)COc1ccc(SCc2ccc(OCc3ccc(F)cc3C(F)(F)F)cc2)c2c1CCC2 | 125 to 127 |
| COC(=O)c1cc(-c2ccc(OC)c(F)c2)nn(CC(C)C)c1=O | 119 to 121 |
| O=c1ccc(-c2ccnnc2)c[nH]1 | > 250 |
| OC(COCc1ccc(Br)cc1)Cn1ccnc1 (stereo unspecified) | 98 to 100 |
| COc1cc(N)c(Cl)cc1C(=O)N[C@H]1CCN(CCNc2nccs2)C[C@H]1OC (relative stereo) | 141 |
| CCOC(=O)c1cc(=O)c2cc3c(c(CC(O)CO)c2o1)CCCC3 (stereo unspecified) | 142 to 144 |

Next, values leading:

| melting point [°C] | Structure (SMILES) |
| --- | --- |
| 218 | NC(=O)C(c1ccccc1)N1C(=O)c2ccccc2C1=O (stereo unspecified) |
| > 300 | CC1(C)CCC(C)(C)c2cc3[nH]c(S)nc3cc21 |
| 89 to 90 | CC(C)N(C(=O)Cl)c1ccccc1 |
| 113 to 114 | COC=Nc1cc(-c2ncon2)nn1-c1c(Cl)cc(C(F)(F)F)cc1Cl |
| 176 to 178 | O=S(=O)(c1ccccc1)n1c2cc(O)c(O)cc2c2ccc(O)c(O)c21 |
| 122 to 125 | COc1cc2c(cc1OCc1ccccc1)C(Sc1ccccc1)(C(N)=CC#N)C2 (stereo unspecified) |
| 217 to 218 | O=c1ccc2cc(-c3cccnc3)ccc2[nH]1 |
| 99 to 101 | CN1CCC=C(c2nsnc2SCCCC(=O)O)C1 |
| 233 to 235 | Cc1cc(-c2ccc(Cl)cc2)nc2c(C(=O)O)cnn12 |
| 181 to 183 | Cc1nc2cnc3cc(Cl)ccc3c2s1 |
| 118 to 119 | CCCCc1cc2cc(C(=O)NOCc3ccccc3)ccn2c1C(=O)c1ccc(OCCCN(CCCC)CCCC)cc1 |
| 142 | COc1ccc(S(=O)(=O)N2c3ccccc3CC2C(=O)NO)cc1 (stereo unspecified) |
| 167 to 169 | CCCc1nc2c(N)nc(C)c(C)c2n1CCCCS(N)(=O)=O |
| 205 to 207 | CC(=O)N1CCc2cc(S(=O)(=O)n3c(CCC(=O)O)cc4cc(C(F)(F)F)ccc43)ccc21 |
| 71.9 to 72.5 | COCCOC(=O)Cc1cc(Oc2ccc(C(F)(F)F)cc2Cl)ccc1[N+](=O)[O-] |
| 238 to 243 | N=C(NO)c1ccc2cc(O)c(O)cc2c1 |
| 58 to 59 | Cc1c(OCCCl)cccc1[N+](=O)[O-] |
| 166 to 167 | O=C(O)CC(Br)c1ccc([N+](=O)[O-])cc1 (stereo unspecified) |
| 179 to 181 | Cc1nn(-c2cc(Oc3ccc(O)cn3)c(Cl)cc2F)c(=O)n1C(F)F |
| 194 to 195 | O=C(O)c1cc2c3ccccc3n(Cc3ccccc3)c2s1 |
| 172 to 173 | C=Cc1ccc(C(=O)Oc2ccc(NS(C)(=O)=O)cc2)cc1 |
| 126 to 128 | COc1ccc(CS(=O)(=O)c2cc3ccc(O)cc3oc2=O)cc1[N+](=O)[O-] |
| 198 | C[Si](C)(C)C#Cc1cnn2c(C(F)(F)F)cc(-c3ccc(Cl)cc3)nc12 |
| 54 to 55 | CC(C)(C)[Si](C)(C)OCCn1ccc(N)n1 |
| 84 to 86 | CC(=O)Nc1ccc(C(=O)Oc2ccccc2)c(Cl)c1 |
| 199 to 200 | O=C1Nc2ccccc2C(c2ccccc2)N1C1CCN(Cc2ccccc2)CC1 (stereo unspecified) |
| 60 to 67 | Cc1noc(NS(=O)(=O)c2ccccc2-c2ccc(CC(C)C)cc2CO)c1C |
| 125 to 127 | CC(C)(C)c1ccc(OP(Oc2ccc(C(C)(C)C)cc2C(C)(C)C)c2cccc3ccccc23)c(C(C)(C)C)c1 |

| melting point [°C] | Structure (SMILES) |
| --- | --- |
| 116 to 118 | CC1(C2=C(O)C(=O)c3ccccc3C2=O)CCCC1 |
| 265 to 267 | Cc1cccc(C)c1CNc1c(NC(C)(C)C)c(=O)c1=O |
| 178 to 179 | Nc1nc(OCc2ccccc2)nc2c1ncn2C1OC(CO)C(O)C1O (stereo unspecified) |
| 107 | COP(=O)(Cc1cc(Cl)c(O)c(C(C)(C)C)c1)OC |
| 95 to 97 | CCCCCCCCCCC(Cn1ccnc1)SCCCC (stereo unspecified) |
| 219 to 220 | Cc1ccc(S(=O)(=O)Nc2c(C)c(C)c3c(c2C)CC(C)(C)O3)cc1 |
| 156 | CSc1ccc(-c2nn(Cc3ccc(F)cc3)c(=O)cc2-c2ccc(F)cc2)cc1 |
| 144 to 145 | CCOC(=O)C(=C(c1ccc(F)cc1)c1ccc(F)cc1)c1nnnn1C |
| 20 to 28 | C=CCOc1cc2c(cc1CC=C)CCC(=O)N2CC=C(C)C |
| 219 to 220 | COc1ccc(C2=NN(C3CCN(c4ncnc5sccc45)CC3)C(=O)[C@@H]3CC=CC[C@H]23)cc1OC |
| 71 to 73 | CCOCCNC(=O)c1c(Cl)cccc1[Si](C)(C)C |
| 159 to 160 | Cc1oc(-c2ccccc2)nc1COc1ccc(COc2cccc(CC(=O)O)c2)cc1 |
| 107 to 108 | CCOP(C)(=O)CC(CCc1ccccc1)NS(=O)(=O)c1ccc(C)cc1 (stereo unspecified) |
| 124 to 132 | O=S(CCO)CCC(c1cc(F)ccc1F)S(=O)(=O)c1ccc(Cl)cc1 (stereo unspecified) |
| 183 to 184 | COc1cc(CNC(=O)c2ccc3n2Cc2ccccc2N(C(=O)c2ccc(-c4ccccc4C)c(C)c2)C3)cc(OC)c1 |
| 84 to 87 | CCCc1c(N)ccc2c(=O)cc(C(=O)OCC)oc12 |
| 102 to 103 | CCOC(=O)c1c(C)cc2ncn(-c3ccccc3)c(=O)c2c1C |
| 152 to 154 | CCCCCCCCCC(=O)Nc1cc(N)cc(NC(=O)CCCCCCCCC)c1 |
| 171 to 174 | CN(C)C=Cc1cc(Cl)c(Cl)cc1[N+](=O)[O-] |
| 149 to 151 | O=C(Cn1nc(-c2ccccc2O)nc1-c1ccccc1O)N1CCOCC1 |
| 272 to 274 | CC(C)n1nc(-c2c(NC(=N)N)nc(N)nc2-c2ccccc2)ccc1=O |
| 216 to 220 | Clc1cnc2[nH]c3ccc(CCc4ccccc4)cc3c2c1 |
| 98 to 100 | N#Cc1ccc(C=C2CCCC2)s1 |
| 175 to 177 | CC1=C(c2ccncc2)CCC(=O)N1 |
| 86 to 87 | CC(C)(C)OC(=O)N1CCC(Oc2cncc(Cl)n2)CC1 |
| 343 to 345 | O=c1[nH]c2cc(Br)ccc2c(O)c1-c1ccccc1 |
| > 243 | O=C(O)c1c2nc3cc(Cl)c(Br)cc3c-2[nH]c2ccccc12 |
